# Data taken from ChEMBL document CHEMBL3396981, “Synthesis and in vitro biological evaluation of 2-(phenylcarbamoyl)phenyl 4-substituted benzoates” (Bioorg Med Chem, 2015).
# pIC50: −log10 of the molar value.
# Assays:
# Mycobacterium kansasii [1] = assay: Antimycobacterial activity against Mycobacterium kansasii 6509/96 after 14 days by microdilution method; type: functional; details: 6509/96, 336 h
# Mycobacterium kansasii [2] = assay: Antimycobacterial activity against Mycobacterium kansasii 6509/96 after 21 days by microdilution method; type: functional; details: 6509/96, 504 h
# Mycobacterium kansasii [3] = assay: Antimycobacterial activity against Mycobacterium kansasii 235/80 after 21 days by microdilution method; type: functional; details: 235/80, 504 h
# [4] = tested on: Mycobacterium tuberculosis; assay: Antimycobacterial activity against Mycobacterium tuberculosis H37Rv 331/88 after 21 days by microdilution method; type: functional; details: H37Rv 331/88, 504 h
# [5] = tested on: Mycobacterium tuberculosis; assay: Antimycobacterial activity against Mycobacterium tuberculosis H37Rv 331/88 after 14 days by microdilution method; type: functional; details: H37Rv 331/88, 336 h
# Mycobacterium avium [6] = assay: Antimycobacterial activity against INH,RIF,OFX,EMB-resistant Mycobacterium avium 330/88 after 14 days by microdilution method; type: functional; details: 330/88, 336 h
# Mycobacterium avium [7] = assay: Antimycobacterial activity against INH,RIF,OFX,EMB-resistant Mycobacterium avium 330/88 after 21 days by microdilution method; type: functional; details: 330/88, 504 h
# Mycobacterium kansasii [8] = assay: Antimycobacterial activity against Mycobacterium kansasii 235/80 after 7 days by microdilution method; type: functional; details: 235/80, 168 h
# Mycobacterium kansasii [9] = assay: Antimycobacterial activity against Mycobacterium kansasii 6509/96 after 7 days by microdilution method; type: functional; details: 6509/96, 168 h
# Mycobacterium kansasii [10] = assay: Antimycobacterial activity against Mycobacterium kansasii 235/80 after 14 days by microdilution method; type: functional; details: 235/80, 336 h
# [11] = Selectivity index, ratio of IC50 for human HepG2 cells to MIC for Mycobacterium tuberculosis; type: toxicity, cell-based; details: read-out: Selectivity Index
# [12] = Selectivity index, ratio of IC50 for human HepG2 cells to MIC for atypical mycobacteria
# HepG2 [13] = assay: Cytotoxicity against human HepG2 cells after 72 hrs by MTT assay; type: cell-based; details: HepG2, 72 h
# HepG2 [14] = assay: Cytostatic activity against human HepG2 cells after 72 hrs by MTT assay; type: functional, cell-based; details: HepG2, 72 h
# [15] = tested on: Staphylococcus epidermidis; assay: Antibacterial activity against Staphylococcus epidermidis H 6966/08 after 48 hrs by broth microdilution method; type: functional; details: H 6966/08, 48 h
# Enterococcus sp. [16] = assay: Antibacterial activity against Enterococcus sp. J 14365/08 after 48 hrs by broth microdilution method; type: functional; details: J 14365/08, 48 h
# [17] = tested on: Staphylococcus epidermidis; assay: Antibacterial activity against Staphylococcus epidermidis H 6966/08 after 24 hrs by broth microdilution method; type: functional; details: H 6966/08, 24 h
# Staphylococcus aureus [18] = assay: Antibacterial activity against methicillin-resistant Staphylococcus aureus H 5996/08 after 48 hrs by broth microdilution method; type: functional; details: H 5996/08, 48 h
# Staphylococcus aureus [19] = assay: Antibacterial activity against Staphylococcus aureus CCM 4516/08 after 24 hrs by broth microdilution method; type: functional; details: CCM 4516/08, 24 h
# Staphylococcus aureus [20] = assay: Antibacterial activity against Staphylococcus aureus CCM 4516/08 after 48 hrs by broth microdilution method; type: functional; details: CCM 4516/08, 48 h
# Staphylococcus aureus [21] = assay: Antibacterial activity against methicillin-resistant Staphylococcus aureus H 5996/08 after 24 hrs by broth microdilution method; type: functional; details: H 5996/08, 24 h
# Trichosporon asahii [22] = assay: Antifungal activity against Trichosporon asahii 1188 after 24 hrs by broth microdilution method; type: functional; details: Trichosporon asahii, 1188, 24 h
# Enterococcus sp. [23] = assay: Antibacterial activity against Enterococcus sp. J 14365/08 after 24 hrs by broth microdilution method; type: functional; details: J 14365/08, 24 h
# Trichosporon asahii [24] = assay: Antifungal activity against Trichosporon asahii 1188 after 48 hrs by broth microdilution method; type: functional; details: Trichosporon asahii, 1188, 48 h
smiles,measurement,setting,value
O=C(Oc1ccc(Cl)cc1C(=O)Nc1ccc(C(F)(F)F)cc1)c1ccc(C(F)(F)F)cc1,MIC,Mycobacterium kansasii [1],2 µM
same,MIC,Mycobacterium kansasii [2],4 µM
same,MIC,Mycobacterium kansasii [3],4 µM
same,MIC,[4],1 µM
same,MIC,[5],1 µM
same,MIC,Mycobacterium avium [6],1 µM
same,MIC,Mycobacterium avium [7],4 µM
same,MIC,Mycobacterium kansasii [8],1 µM
same,MIC,Mycobacterium kansasii [9],1 µM
same,MIC,Mycobacterium kansasii [10],2 µM
O=C(Oc1ccc(Cl)cc1C(=O)Nc1ccc(C(F)(F)F)cc1)c1ccc([N+](=O)[O-])cc1,MIC,Mycobacterium kansasii [1],2 µM
same,MIC,Mycobacterium kansasii [2],4 µM
same,MIC,Mycobacterium kansasii [3],4 µM
same,MIC,[4],1 µM
same,MIC,[5],0.5 µM
same,MIC,Mycobacterium avium [6],4 µM
same,selectivity ratio,[11],> 50
same,MIC,Mycobacterium avium [7],4 µM
same,Selectivity Index,[12],>12.5
same,MIC,Mycobacterium kansasii [8],1 µM
same,MIC,Mycobacterium kansasii [9],1 µM
same,pIC50,HepG2 [13],< 4.30
same,pIC50,HepG2 [14],5.94
same,MIC,Mycobacterium kansasii [10],2 µM
O=C(Nc1ccc(C(F)(F)F)cc1)c1cc(Cl)ccc1O,MIC,Mycobacterium kansasii [1],2 µM
same,MIC,Mycobacterium kansasii [2],2 µM
same,MIC,Mycobacterium kansasii [3],2 µM
same,MIC,[4],2 µM
same,MIC,[5],2 µM
same,MIC,Mycobacterium avium [6],8 µM
same,MIC,Mycobacterium avium [7],8 µM
same,MIC,Mycobacterium kansasii [8],1 µM
same,MIC,Mycobacterium kansasii [9],2 µM
same,MIC,Mycobacterium kansasii [10],2 µM
Cc1ccc(C(=O)Oc2ccc(Cl)cc2C(=O)Nc2ccc(Cl)c(Cl)c2)cc1,MIC,Mycobacterium kansasii [1],4 µM
same,MIC,Mycobacterium kansasii [2],4 µM
same,MIC,Mycobacterium kansasii [3],2 µM
same,MIC,[4],1 µM
same,MIC,[5],1 µM
same,MIC,Mycobacterium avium [6],8 µM
same,selectivity ratio,[11],> 50
same,MIC,Mycobacterium avium [7],8 µM
same,Selectivity Index,[12],>6.25
same,MIC,Mycobacterium kansasii [8],1 µM
same,MIC,Mycobacterium kansasii [9],2 µM
same,pIC50,HepG2 [13],< 4.30
same,pIC50,HepG2 [14],5.59
same,MIC,Mycobacterium kansasii [10],2 µM
O=C(Nc1ccc(Cl)c(Cl)c1)c1cc(Cl)ccc1O,MIC,Mycobacterium kansasii [1],8 µM
same,MIC,Mycobacterium kansasii [2],8 µM
same,MIC,Mycobacterium kansasii [3],8 µM
same,MIC,[4],8 µM
same,MIC,[5],4 µM
same,MIC,Mycobacterium avium [6],32 µM
same,MIC,Mycobacterium avium [7],32 µM
same,MIC,Mycobacterium kansasii [8],4 µM
same,MIC,Mycobacterium kansasii [9],8 µM
same,MIC,Mycobacterium kansasii [10],8 µM
Cc1ccc(C(=O)Oc2ccc(Br)cc2C(=O)Nc2ccc(C(F)(F)F)cc2)cc1,MIC,[15],> 125 µM
same,MIC,Mycobacterium kansasii [1],2 µM
same,MIC,Enterococcus sp. [16],> 125 µM
same,MIC,Mycobacterium kansasii [2],4 µM
same,MIC,Mycobacterium kansasii [3],2 µM
same,MIC,[17],> 125 µM
same,MIC,[4],1 µM
same,MIC,[5],1 µM
same,MIC,Staphylococcus aureus [18],> 125 µM
same,MIC,Staphylococcus aureus [19],> 125 µM
same,MIC,Staphylococcus aureus [20],> 125 µM
same,MIC,Staphylococcus aureus [21],> 125 µM
same,MIC,Mycobacterium avium [6],4 µM
same,selectivity ratio,[11],> 50
same,MIC,Trichosporon asahii [22],> 125 µM
same,MIC,Mycobacterium avium [7],8 µM
same,Selectivity Index,[12],>6.25
same,MIC,Enterococcus sp. [23],> 125 µM
same,MIC,Mycobacterium kansasii [8],1 µM
same,MIC,Mycobacterium kansasii [9],2 µM
same,pIC50,HepG2 [13],< 4.30
same,pIC50,HepG2 [14],4.57
same,MIC,Mycobacterium kansasii [10],2 µM
same,MIC,Trichosporon asahii [24],> 125 µM
O=C(Oc1ccc(Cl)cc1C(=O)Nc1ccc(C(F)(F)F)cc1)c1ccc(Br)cc1,MIC,Mycobacterium kansasii [1],2 µM
same,MIC,Mycobacterium kansasii [2],2 µM
same,MIC,Mycobacterium kansasii [3],1 µM
same,MIC,[4],1 µM
same,MIC,[5],1 µM
same,MIC,Mycobacterium avium [6],4 µM
same,selectivity ratio,[11],> 50
same,MIC,Mycobacterium avium [7],4 µM
same,Selectivity Index,[12],>12.5
same,MIC,Mycobacterium kansasii [8],0.5 µM
same,MIC,Mycobacterium kansasii [9],1 µM
same,pIC50,HepG2 [13],< 4.30
same,pIC50,HepG2 [14],4.84
same,MIC,Mycobacterium kansasii [10],1 µM
Nc1ccc(C(=O)O)c(O)c1 [AMINOSALICYLIC ACID],MIC,Mycobacterium kansasii [1],125 µM
same,MIC,Mycobacterium kansasii [2],500 µM
same,MIC,Mycobacterium kansasii [3],> 1000 µM
same,MIC,[4],62.5 µM
same,MIC,[5],62.5 µM
same,MIC,Mycobacterium avium [6],32 µM
same,selectivity ratio,[11],35.8
same,MIC,Mycobacterium avium [7],125 µM
same,Selectivity Index,[12],<2.2
same,MIC,Mycobacterium kansasii [8],125 µM
same,MIC,Mycobacterium kansasii [9],32 µM
same,MIC,Mycobacterium kansasii [10],1000 µM
O=C(Oc1ccc(Cl)cc1C(=O)Nc1ccc(Cl)c(Cl)c1)c1ccccc1,MIC,Mycobacterium kansasii [1],2 µM
same,MIC,Mycobacterium kansasii [2],2 µM
same,MIC,Mycobacterium kansasii [3],4 µM
same,MIC,[4],1 µM
same,MIC,[5],1 µM
same,MIC,Mycobacterium avium [6],8 µM
same,MIC,Mycobacterium avium [7],8 µM
same,MIC,Mycobacterium kansasii [8],2 µM
same,MIC,Mycobacterium kansasii [9],1 µM
same,MIC,Mycobacterium kansasii [10],4 µM
O=C(Oc1ccc(Cl)cc1C(=O)Nc1ccc(Cl)c(Cl)c1)c1ccc(C(F)(F)F)cc1,MIC,Mycobacterium kansasii [1],2 µM
same,MIC,Mycobacterium kansasii [2],4 µM
same,MIC,Mycobacterium kansasii [3],4 µM
same,MIC,[4],1 µM
same,MIC,[5],1 µM
same,MIC,Mycobacterium avium [6],4 µM
same,MIC,Mycobacterium avium [7],4 µM
same,MIC,Mycobacterium kansasii [8],1 µM
same,MIC,Mycobacterium kansasii [9],1 µM
same,MIC,Mycobacterium kansasii [10],2 µM
